Results: BindingDB's records for doi:10.1021/acschembio.5b00452 (Oregon Health & Science University, 2015)

Key:
N-glycosylase/DNA lyase [1] = target: T1, N-glycosylase/DNA lyase (Homo sapiens, UniProt O15527); assay: Fluorescence-based Assay; conditions: pH 7.5; 37 °C
Procedure: The fluorescence-based assay outlined in Figure 2 a was performed in black, low volume 384-well plates with a fi nal volume of 10 µL per well. Nine uL of assay buffer (20 mM Tris-HCl, 100 mM KCl, 0.1% BSA, 0.01% Tween-20, pH 7.5) was added toeach well, followed by the addition of 1 uL of DMSO (control) or 50 µM compound in DMSO. […] Control wells containing just substrate or just substrate + enzyme were used to calculate Z values for each plate.

N-glycosylase/DNA lyase [2] = target: T1, N-glycosylase/DNA lyase; assay: Gel-based Cleavage Assay
Procedure: Substrate (5 µL, 50 nM) was added to bring the final volume to 10 µL. The reaction was incubated 30 min at 37 °C, quenched by the addition of 10 µL of formamide, and put on ice. […] Band intensities were quantified using the Image Studio Lite Software (LI-COR).

T1 sequence (O15527 whole entry): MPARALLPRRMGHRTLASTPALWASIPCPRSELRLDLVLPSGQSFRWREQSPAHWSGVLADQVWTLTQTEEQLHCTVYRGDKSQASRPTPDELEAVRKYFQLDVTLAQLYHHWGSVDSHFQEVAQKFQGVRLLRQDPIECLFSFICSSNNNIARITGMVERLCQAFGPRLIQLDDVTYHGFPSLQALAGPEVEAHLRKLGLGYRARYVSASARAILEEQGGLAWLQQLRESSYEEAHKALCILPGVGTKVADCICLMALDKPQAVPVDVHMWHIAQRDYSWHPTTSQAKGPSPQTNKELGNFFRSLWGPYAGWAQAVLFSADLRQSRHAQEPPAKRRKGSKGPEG

Compound	IC50 (N-glycosylase/DNA lyase [1]) [nM]	IC50 (N-glycosylase/DNA lyase [2]) [nM]
NNC(=O)c1sc2ccccc2c1Cl [3‐Chloro‐1‐benzothiophene‐2‐carbohydrazide (O8-Cl)]	300	–
COc1cc(C)c(S(=O)(=O)n2cc(C)nc2-c2ccccc2)cc1C [1‐(4‐Methoxy‐2,5‐dimethylbenzenesulfonyl)‐4‐methyl‐2‐phenylimidazole (0105)]	4150	–
CCCC/C(C)=N\NC(=O)c1cccc(Br)c1 [3‐Bromo‐N'‐[(2Z)‐hexan‐2‐ylidene]benzohydrazide (0156)]	2130	–
NNc1nncc2ccccc12 [NSC_3637]	> 50000	–
O=C(NN=C1CCCCC1)c1cc2ccccc2cc1O [N'‐Cyclohexylidene‐3‐hydroxynaphthalene‐2‐carbohydrazide (0158)]	290	340
Cc1cc(OCC(=O)NN)cc(C)c1Cl [2‐(4‐Chloro‐3,5‐dimethylphenoxy)acetohydrazide (0159)]	1530	–
NNC(=O)COc1cccc2ccccc12 [2‐(Naphthalen‐1‐yloxy)acetohydrazide (040)]	1560	–

Second part, the compound after the results:

IC50 (N-glycosylase/DNA lyase [1]) [nM]	IC50 (N-glycosylase/DNA lyase [2]) [nM]	Compound
> 50000	–	Cc1cc(C(=O)NNCc2ccccc2)no1 [ISOCARBOXAZID]
3780	–	C=CCC/C(C)=N\NC(=O)c1cccc(Br)c1 [3‐Bromo‐N'‐[(2Z)‐hex‐5‐en‐2‐ylidene]benzohydrazide (0155)]
4560	–	CCCN1CCC(=NNC(=O)c2ccc(Cl)cc2Cl)CC1 [2,4‐Dichloro‐N'‐(1‐propylpiperidin‐4‐ ylidene)benzohydrazide (0181)]
7170	–	C/C(=N\NC(=O)c1cc2ccccc2cc1O)c1ccc2c(c1)OCO2 [N'‐[(1E)‐1‐(2H‐1,3‐benzodioxol‐5‐yl)ethylidene]‐3‐hydroxynaphthalene‐2‐carbohydrazide (0179)]
350	220	NNC(=O)c1sc2cccc(Cl)c2c1Cl [3,4‐Dichloro‐1‐benzothiophene‐2‐carbohydrazide (08)]
> 50000	–	O=C(CCNNC(=O)c1ccncc1)NCc1ccccc1 [Nialamide]
> 50000	> 50000	NNC(=O)c1ccncc1 [4-pyridinecarbohydrazide(Isoniazid)]
3380	–	CC(Oc1cccc(Cl)c1)C(=O)NN (stereo not given) [2‐(3‐Chlorophenoxy)propanehydrazide (01)]
> 50000	–	NC(=O)c1ccc(Br)cc1 [4-Bromo-benzamide]
390	–	NNC(=O)c1ccc(Br)cc1 [Benzoylhydrazine, P‐bromo (0151-Hy)]
